Laboratory results taken from paper PMC12040169 (PLOS Biology, 2025).

Assay: in vitro
Conditions: human, hela cells, % viability

| Compound | viability at 28.5 h, 10 µM [%] |
| --- | --- |
| CC(C)c1ccc(N2C(=O)N[C@@H]3CCN(C(=O)COc4ccccc4)[C@@H]3C2=O)cc1 [CBK289288] | 98.2 |
| COc1ccc(S(=O)(=O)N2CC[C@H]3NC(=O)N(c4ccc(C(C)C)cc4)C(=O)[C@H]32)cc1 [CBK289290] | 107 |
| CCC(CC)C(=O)N1CC[C@H]2NC(=O)N(Cc3ccccc3)C(=O)[C@H]21 [CBK289291] | 88.7 |
| COc1ccc(C(=O)N2CC[C@H]3NC(=O)N(Cc4ccccc4)C(=O)[C@H]32)cc1 [CBK289293] | 94.1 |
| CC(C)(C)c1ccc(C(=O)N2CC[C@H]3NC(=O)N(Cc4ccccc4)C(=O)[C@H]32)cc1 [CBK289294] | 86 |
| COc1ccc(-c2c[nH]c([C@@H]3COCCN3Cc3ccccc3O)n2)cc1 [CBK289296] | 85.1 |
| CS(=O)(=O)c1ccc(-c2c[nH]c([C@@H]3COCCN3C3CCCCC3)n2)cc1 [CBK289299] | 102 |
| CC(C)N1CCOC[C@H]1c1nc(-c2ccc(S(C)(=O)=O)cc2)c[nH]1 [CBK289301] | 91.2 |
| COc1ccc(-c2c[nH]c([C@@H]3COCCN3Cc3ccc(C(=O)O)cc3)n2)cc1 [CBK289305] | 84.1 |
| CS(=O)(=O)c1ccc(-c2c[nH]c([C@@H]3COCCN3Cc3ccc(C(=O)O)cc3)n2)cc1 [CBK289306] | 97.3 |
| CN(C)Cc1cc(C[C@@H]2C[C@H](NS(=O)(=O)c3ccccc3)C2(C)C)no1 [CBK289307] | 112 |
| Cc1ccc(-c2c[nH]c([C@@H]3COCCN3Cc3c[nH]c4ccccc34)n2)cc1 [CBK289308] | 106 |
| CN(C)Cc1cc(C[C@@H]2C[C@H](NCc3ccccn3)C2(C)C)no1 [CBK289313] | 92.3 |
| Cc1ccc(-c2c[nH]c([C@@H]3COCCN3Cc3c[nH]cn3)n2)cc1 [CBK289315] | 94.8 |
| O=C(O)c1ccc(CN2CCOC[C@H]2c2nc(-c3ccc(C(F)(F)F)cc3)c[nH]2)cc1 [CBK289317] | 115 |
| O=C(Nc1ccc([C@@H](O)[C@H]2COCC(=O)N2Cc2cccnc2)cc1)c1ccccc1 [CBK289319] | 111 |
| CS(=O)(=O)c1ccc(-c2c[nH]c([C@@H]3COCCN3Cc3c[nH]c4ccccc34)n2)cc1 [CBK289321] | 92 |
| Cn1cc(CN2CCOC[C@H]2c2nc(C(C)(C)C)c[nH]2)c2ccccc21 [CBK289322] | 118 |
| COc1ccc(C(=O)N2CC[C@H]3NC(=O)N(c4ccc(F)cc4)C(=O)[C@H]32)cc1 [CBK289325] | 86.9 |
| O=C1N[C@@H]2CCN(S(=O)(=O)c3cccs3)[C@@H]2C(=O)N1c1ccc(F)cc1 [CBK289326] | 89.1 |
| O=C(O)CC1(CC(=O)N2CC[C@H]3NC(=O)N(c4ccc(F)cc4)C(=O)[C@H]32)CCCC1 [CBK289327] | 97.7 |
| COc1ccc(-c2ccc3c(c2)C(=O)N2CC[C@H](NC(=O)C4CCCC4)[C@H]2C(=O)N3)cc1 [CBK289330] | 108 |
| COc1ccc(-c2ccc3c(c2)C(=O)N2CC[C@H](NC(=O)CCC(=O)O)[C@H]2C(=O)N3)cc1 [CBK289331] | 84.4 |
| O=C(N[C@H]1CCN2C(=O)c3ccccc3NC(=O)[C@H]12)c1cccc(F)c1 [CBK289332] | 89.3 |
| CC(C)NC(=O)N[C@H]1CCN2C(=O)c3cc(-c4ccccc4F)ccc3NC(=O)[C@H]12 [CBK289335] | 84.2 |

| Compound | viability at 28.5 h, 10 µM [%] |
| --- | --- |
| O=C1Nc2ccc(-c3ccsc3)cc2C(=O)N2CC[C@H](NC(=O)N3CCOCC3)[C@@H]12 [CBK289338] | 109 |
| CC(C)NC(=O)N[C@H]1CCN2C(=O)c3ccc(Cl)cc3NC(=O)[C@H]12 [CBK289343] | 99.5 |
| N[C@H]1CCN2C(=O)c3cc(-c4ccc(F)cc4F)ccc3NC(=O)[C@H]12 [CBK289345] | 94.4 |
| Cc1cccc(-c2ccc3c(c2)C(=O)N2CC[C@H](NC(=O)N4CCOCC4)[C@H]2C(=O)N3)c1C [CBK289347] | 88.1 |
| CC(C)NC(=O)N[C@H]1CCN2C(=O)c3cc(-c4ccccc4)ccc3NC(=O)[C@H]12 [CBK289351] | 84.1 |
| O=C(N[C@H]1C[C@H]2C(=O)Nc3ccccc3C(=O)N2C1)c1cccnc1 [CBK289356] | 110 |
| COCC(=O)N[C@H]1C[C@H]2C(=O)Nc3ccc(Br)cc3C(=O)N2C1 [CBK289357] | 97.6 |
| COCC(=O)N[C@H]1C[C@H]2C(=O)Nc3ccc(-c4cccs4)cc3C(=O)N2C1 [CBK289358] | 110 |
| COc1ccc(C(=O)N[C@H]2C[C@H]3C(=O)Nc4ccc(-c5ccsc5)cc4C(=O)N3C2)cc1 [CBK289362] | 91.7 |
| CS(=O)(=O)N[C@H]1C[C@H]2C(=O)Nc3cc(Cl)ccc3C(=O)N2C1 [CBK289363] | 89 |
| Cn1cccc1C(=O)N[C@H]1C[C@H]2C(=O)Nc3cc(Cl)ccc3C(=O)N2C1 [CBK289364] | 86.7 |
| C=CCNC(=O)N[C@H]1C[C@H]2C(=O)Nc3cc(Cl)ccc3C(=O)N2C1 [CBK289365] | 92.5 |
| Cn1cccc1C(=O)N[C@H]1C[C@H]2C(=O)Nc3ccc(/C=C/c4ccccc4)cc3C(=O)N2C1 [CBK289367] | 86.7 |
| CS(=O)(=O)N[C@H]1C[C@H]2C(=O)Nc3ccc(-c4ccc(F)cc4F)cc3C(=O)N2C1 [CBK289368] | 85.3 |
| CS(=O)(=O)N1CC[C@H](c2nc3cc(Cl)ccc3o2)C1 [CBK289370] | 86 |
| CC(=O)Nc1ccc(S(=O)(=O)N2CC[C@H](c3nc4ccccc4o3)C2)cc1 [CBK289373] | 103 |
| CC(=O)N1CC[C@H](c2nc3ccc(C#N)cc3[nH]2)C1 [CBK289378] | 108 |
| CCS(=O)(=O)c1ccc2oc([C@H]3CCN(C(=O)C4CCCCC4)C3)nc2c1 [CBK289381] | 104 |
| c1ccc(CN2CC[C@H](c3nc4ncccc4[nH]3)C2)cc1 [CBK289383] | 106 |
| O=C(O)c1ccc(CN2CC[C@H](c3nc4ccccc4o3)C2)cc1 [CBK289387] | 108 |
| c1ccc2oc([C@H]3CCN(C4CCOCC4)C3)nc2c1 [CBK289388] | 92.3 |
| Cc1nnc([C@H]2CCN(Cc3ccccc3)C2)o1 [CBK289390] | 114 |
| Cc1nnc([C@H]2CCN(Cc3cccs3)C2)o1 [CBK289393] | 103 |
| c1cncc(-c2nnc([C@H]3CCNC3)o2)c1 [CBK289396] | 103 |
| Cc1ccc(-c2nnc([C@H]3CCN(Cc4ccc(CO)o4)C3)o2)cc1 [CBK289399] | 90 |

| Compound | viability at 28.5 h, 10 µM [%] |
| --- | --- |
| CCCc1nnc([C@H]2CCN(Cc3ccc(S(C)(=O)=O)cc3)C2)o1 [CBK289402] | 100 |
| CN1CCC(N2CC[C@H](c3nnc(-c4cncn4C)o3)C2)CC1 [CBK289403] | 117 |
| CN(C)c1ccc(-c2nnc([C@H]3CCN(C(=O)CCC(=O)O)C3)o2)cc1 [CBK289408] | 119 |
| COc1ccc(-c2nnc([C@H]3CCN(C(=O)C4CC4)C3)o2)cc1 [CBK289409] | 89.6 |
| COCC(=O)N1CC[C@H](c2nnc(-c3ccncc3)o2)C1 [CBK289413] | 88 |
| CN(C)c1ccc(CN2CC[C@H](c3nc4cccc(C(N)=O)c4[nH]3)C2)cc1 [CBK289414] | 105 |
| CC(C)C[C@@H]1N[C@H](C(=O)NCCN(C)C)Cc2c[nH]c3cccc1c23 [CBK289417] | 92.9 |
| CC(C)C[C@@H]1N[C@H](C(=O)NCc2cccnc2)Cc2c[nH]c3cccc1c23 [CBK289418] | 90 |
| COCCN1CCN(C(=O)[C@@H]2Cc3c[nH]c4cccc(c34)[C@H](CC(C)C)N2)CC1 [CBK289419] | 84.5 |
| Cc1cc(CNC(=O)[C@@H]2Cc3cn(C)c4cccc(c34)[C@H](CC(C)C)N2)no1 [CBK289420] | 104 |
| CC(C)C[C@@H]1N[C@H](C(=O)N2CCN(c3ncccn3)CC2)Cc2cn(C)c3cccc1c23 [CBK289421] | 84.2 |
| C#CCNC(=O)[C@@H]1Cc2cn(Cc3nccn3C)c3cccc(c23)[C@H](CC(C)C)N1 [CBK289424] | 108 |
| C#CCNC(=O)[C@@H]1Cc2cn(Cc3c(C)noc3C)c3cccc(c23)[C@H](CC(C)C)N1 [CBK289425] | 93.7 |
| COc1ccc(-c2cc(CC3(NC(C)=O)COC3)no2)cc1 [CBK289428] | 94.5 |
| COCC(=O)Nc1nc2c(s1)C[C@]1(C)CC[C@@H]3[C@H](OC(=O)[C@H]3C)[C@H]1[C@@H]2C [CBK289430] | 105 |
| C[C@@H]1C(=O)O[C@H]2[C@H]1CC[C@@]1(C)Cc3sc(NC(=O)CN(C)C)nc3[C@@H](C)[C@H]21 [CBK289431] | 87.3 |
| Cc1cc(OCC(=O)O)c(C)c2c1CC[C@@H]([C@H](C)C(=O)N1CCC(O)CC1)C2 [CBK289433] | 78.7 |
| CC(=O)N[C@H]1CC[C@]2(C)CCC([C@H](C)C(=O)NCCN3CCOCC3)[C@H](O)[C@H]2[C@@H]1C (stereo partly drawn) [CBK289434] | 114 |
| CC(=O)N[C@H]1CC[C@]2(C)CCC([C@H](C)C(=O)N(C)Cc3ccccc3)[C@H](O)[C@H]2[C@@H]1C (stereo partly drawn) [CBK289435] | 110 |
| CC(=O)N[C@H]1CC[C@]2(C)CCC([C@H](C)C(=O)NC3CC3)[C@H](O)[C@H]2[C@@H]1C (stereo partly drawn) [CBK289437] | 93.9 |
| CC(=O)N[C@H]1CC[C@]2(C)CCC([C@H](C)C(=O)NCCN3CCCC3)[C@H](O)[C@H]2[C@@H]1C (stereo partly drawn) [CBK289440] | 86.5 |
| C[C@H]1[C@@H]2[C@@H](O)C([C@H](C)C(=O)NC3CC3)CC[C@@]2(C)CC[C@@H]1NC(=O)C1CC1 (stereo partly drawn) [CBK289442] | 87.1 |
| CC(C)NC(=O)[C@@H](C)C1CC[C@@]2(C)CC[C@H](NC(=O)C3CC3)[C@@H](C)[C@@H]2[C@H]1O (stereo partly drawn) [CBK289444] | 85 |
| C[C@H]1[C@@H]2[C@@H](O)C([C@H](C)C(=O)N3CCCCC3)CC[C@@]2(C)CC[C@@H]1NC(=O)C1CC1 (stereo partly drawn) [CBK289446] | 106 |
| C[C@H]1[C@@H]2[C@@H](O)C([C@H](C)C(=O)N3CCCC3)CC[C@@]2(C)CC[C@@H]1NC(=O)C1CC1 (stereo partly drawn) [CBK289447] | 85 |
